Read-outs that look alike come from different tables or passages of the source. Values belong to the compound of their own block, whether it stands above or below them.
Tests used:
Assay type in all cases: cell-based
[1] = system: Type II cells in rat medial septum; experiment: Patch-clamp recording of ACh-evoked responses of medial septal neurons, Type II cells
Procedure: (§1) All procedures involving rats were approved by the University of Florida IACUC and were in accord with the NIH Guide for the Care and Use of Laboratory Animals. Male Sprague Dawley rats (post-natal day 12-25) were anesthetized with Halothane (Halocarbon Laboratories, River Edge N.J.) and swiftly decapitated. Transverse ([…]) whole brain slices were prepared using a vibratome (Pelco, Redding, Calif.) and then placed in a high Mg^2+/low Ca^2+ ice-cold artificial cerebral spinal fluid (ACSF) containing (in mM) 124 NaCl, 2.5 KCl, 1.2 NaH2PO4, 2.5 MgSO4, 10 D-glucose, 1 CaCl2, and 25.9 NaHCO3, saturated with 95% O2-5% CO2. Slices were incubated at 30° C. for 30 minutes and then left at room temperature until they were transferred to a submersion chamber (Warner Instruments, Hamden, Conn.) for recording. During experiments, slices were perfused at a rate of 2 ml/min with normal ACSF containing (in mM) 126 NaCl, 3 KCl, 1.2 NaH2PO4, 1.5 MgSO4, 11 D-glucose, 2.4 CaCl2, 25.9 NaHCO3, and 0.004 atropine sulfate, saturated with 95% 02-5% CO2 at 30° C. Cells were visualized with infrared differential interference contrast microscopy using a Nikon E600FN microscope. Patch-clamp recording pipettes were pulled from borosilicate glass (Sutter Instruments, Novato, Calif.) using a Flaming/Brown micropipette puller (P-97; Sutter Instruments, Novato, Calif.). Recording pipettes were filled with an internal solution of (in mM) 125K-gluconate, 1 KCl, 0.1 CaCl2, 2 MgCl2, 1 EGTA, 2 MgATP, 0.3 Na3GTP, and 10 HEPES (pH adjusted to 7.3 with KOH). The resistance of the recording pipette when filled with the internal solution was 3-5 MΩ. Cells were held at −70 mV, and a −10 in V/10 ms test pulse was used to determine access resistance, input resistance, and whole-cell capacitance. Cells with access resistances >60 MΩ or those requiring holding currents >200 pA were not included in the final analyses. Signals were digitized using an Axon Digidata1322A and sampled at 20 kHz on a Dell computer using Clampex version 8 or 9. Data analysis was done with Clampfit version 8 or 9 (Axon Instruments, Union City, Calif.), Excel 2000 (Microsoft, Seattle, Wash.), and GraphPad/Prism version 4.02 (Graphpad Software, San Diego, Calif.). Data are reported as mean±SEM. Statistical analyses were performed using two-tailed Student's t-test and one-way analysis of variance (ANOVA).
(§2) Single-barrel pipettes were pulled from borosilicate glass with an outer diameter (o.d.) and inner diameter (i.d.) of 1.5 mm and 0.86 mm, respectively (Sutter Instrument, Novato, Calif.). Pipette opening size of the single barrel was typically 2-3 μm. Double-barrel pipettes were pulled from borosilicate theta glass with an o.d. of 1.5 mm; pipette opening size was around 3-4 μm. The application pipette was usually placed within 10-15 μm of the cell soma.
(§3) In experiments in which AQA analogs were bath-applied, for each cell, four ACh baseline-evoked responses were recorded before bath application of the antagonist. ACh-evoked responses were then recorded for 13-22 min in the presence of the AQA analog. Each analog was bath-applied at a final concentration of 1 μm. In some septum experiments, dihydro-β-erythroidine (DHβE) was also bath-applied at a final concentration of 1 μm.
Neurons in rat medial septum vary in their nAChR-mediated responses. Some neurons (Type I cells) have relatively fast transient ACh-evoked responses, while others (Type II cells) have slower ACh-evoked responses (Thinschmidt et al., 2005a).

rat α7 nAChRs = target: T1, rat α7 nAChRs (Rattus norvegicus, UniProt Q05941); experiment: Voltage-clamp recording in Xenopus oocytes expressing rat α7 nAChRs; details: for Imax of ACh concentration-response in the presence of antagonist: ACh alone Imax=1; for recovery of responses to ACh alone after co-application: 5 min washout; for effect of voltage on inhibition of α7 receptors: −40 or −80 mV, 60 μM ACh; for inhibition at 1 µM: 1 μM tPyQB
T1 construct: expressed in transfected cells; host or cells: Xenopus laevis oocytes injected with subunit cRNA
T1 sequence (Q05941 23-502): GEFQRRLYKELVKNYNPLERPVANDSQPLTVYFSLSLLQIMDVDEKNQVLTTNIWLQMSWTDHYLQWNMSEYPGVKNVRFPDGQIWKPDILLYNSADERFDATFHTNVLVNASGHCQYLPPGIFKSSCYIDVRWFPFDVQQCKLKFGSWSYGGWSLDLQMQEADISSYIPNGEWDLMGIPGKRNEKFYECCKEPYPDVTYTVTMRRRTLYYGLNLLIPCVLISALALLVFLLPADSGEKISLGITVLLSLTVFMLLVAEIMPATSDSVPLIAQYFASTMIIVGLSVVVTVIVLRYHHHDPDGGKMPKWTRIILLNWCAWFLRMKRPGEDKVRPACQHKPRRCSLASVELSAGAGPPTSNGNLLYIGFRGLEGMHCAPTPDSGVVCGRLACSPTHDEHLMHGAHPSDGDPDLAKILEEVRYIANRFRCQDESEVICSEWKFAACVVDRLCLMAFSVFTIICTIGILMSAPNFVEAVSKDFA
Procedure: (§4) For recombinant nAChR studies, mature (>9 cm) female Xenopus laevis African frogs (Nasco, Ft. Atkinson, Wis.) were used as a source of oocytes. Prior to surgery, frogs were anesthetized by placing the animal in a 1.5 g/l solution of MS222 (3-aminobenzoic acid ethyl ester) for 30 min. Oocytes were removed from an incision made in the abdomen. All procedures involving frogs were approved by the University of Florida Institutional Animal Care and Use Committee (IACUC).
(§5) Stage 5 oocytes were then isolated and injected with 50 n1 (5-20 ng) each of the appropriate subunit cRNAs. The rat neuronal nAChR clones were obtained from Dr. Jim Boulter (UCLA, Los Angeles, Calif.). After linearization and purification of cloned cDNAs, RNA transcripts were prepared in vitro using the appropriate mMessage mMachine kit from Ambion (Austin, Tex.).
(§6) Experiments were conducted using OpusXpress 6000A (Molecular Devices, Union City Calif.). […] Net charge values were used to report inhibitory effects. […] Means and standard errors (SEM) were calculated from the normalized responses of at least four oocytes for each experimental concentration. Concentration-response data were fit to the Hill equation assuming negative Hill slopes.

rat α4β2 nAChRs = target: T2, rat α4β2 nAChRs (Rattus norvegicus, UniProt P09483+P12390); experiment: Voltage-clamp recording in Xenopus oocytes expressing rat α4β2 nAChRs; details: for recovery of responses to ACh alone after co-application: 5 min washout
T2 construct: expressed in transfected cells; host or cells: Xenopus laevis oocytes injected with subunit cRNAs
T2 sequence (P09483 31-630): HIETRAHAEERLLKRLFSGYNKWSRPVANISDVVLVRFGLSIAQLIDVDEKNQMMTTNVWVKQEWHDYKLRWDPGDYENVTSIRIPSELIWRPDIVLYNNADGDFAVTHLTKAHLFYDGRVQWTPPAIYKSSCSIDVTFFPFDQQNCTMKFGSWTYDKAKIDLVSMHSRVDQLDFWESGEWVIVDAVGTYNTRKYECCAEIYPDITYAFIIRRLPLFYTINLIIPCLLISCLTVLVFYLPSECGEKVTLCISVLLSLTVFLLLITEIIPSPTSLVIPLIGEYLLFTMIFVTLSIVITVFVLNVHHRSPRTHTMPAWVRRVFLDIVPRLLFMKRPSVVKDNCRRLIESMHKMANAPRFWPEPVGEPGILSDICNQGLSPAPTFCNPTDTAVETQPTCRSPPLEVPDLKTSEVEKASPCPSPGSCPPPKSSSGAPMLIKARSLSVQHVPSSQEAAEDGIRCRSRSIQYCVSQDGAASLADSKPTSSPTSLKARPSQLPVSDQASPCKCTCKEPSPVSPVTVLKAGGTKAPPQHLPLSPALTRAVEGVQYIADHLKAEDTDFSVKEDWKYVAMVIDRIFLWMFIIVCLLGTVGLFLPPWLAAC
T2 sequence (P12390 25-500): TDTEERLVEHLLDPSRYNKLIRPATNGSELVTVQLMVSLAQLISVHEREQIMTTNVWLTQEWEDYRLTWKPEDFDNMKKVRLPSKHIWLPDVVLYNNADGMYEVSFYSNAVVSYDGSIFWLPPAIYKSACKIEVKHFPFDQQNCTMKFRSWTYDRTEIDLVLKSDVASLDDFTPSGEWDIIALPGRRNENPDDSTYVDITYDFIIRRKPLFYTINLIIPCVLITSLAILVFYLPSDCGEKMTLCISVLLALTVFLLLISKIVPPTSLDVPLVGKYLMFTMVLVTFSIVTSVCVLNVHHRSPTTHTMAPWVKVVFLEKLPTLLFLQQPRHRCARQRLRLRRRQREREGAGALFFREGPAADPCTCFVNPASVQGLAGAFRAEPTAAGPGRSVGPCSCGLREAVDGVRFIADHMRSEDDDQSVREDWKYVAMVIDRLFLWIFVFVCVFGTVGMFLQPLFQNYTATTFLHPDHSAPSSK
Procedure: as §4, §5, §6

rat α3β4 nAChRs = target: T3, rat α3β4 nAChRs (Rattus norvegicus, UniProt P04757+P12392); experiment: Voltage-clamp recording in Xenopus oocytes expressing rat α3β4 nAChRs; details: for recovery of responses to ACh alone after co-application: 5 min washout
T3 construct: expressed in transfected cells; host or cells: Xenopus laevis oocytes injected with subunit cRNAs
T3 sequence (P04757 26-499): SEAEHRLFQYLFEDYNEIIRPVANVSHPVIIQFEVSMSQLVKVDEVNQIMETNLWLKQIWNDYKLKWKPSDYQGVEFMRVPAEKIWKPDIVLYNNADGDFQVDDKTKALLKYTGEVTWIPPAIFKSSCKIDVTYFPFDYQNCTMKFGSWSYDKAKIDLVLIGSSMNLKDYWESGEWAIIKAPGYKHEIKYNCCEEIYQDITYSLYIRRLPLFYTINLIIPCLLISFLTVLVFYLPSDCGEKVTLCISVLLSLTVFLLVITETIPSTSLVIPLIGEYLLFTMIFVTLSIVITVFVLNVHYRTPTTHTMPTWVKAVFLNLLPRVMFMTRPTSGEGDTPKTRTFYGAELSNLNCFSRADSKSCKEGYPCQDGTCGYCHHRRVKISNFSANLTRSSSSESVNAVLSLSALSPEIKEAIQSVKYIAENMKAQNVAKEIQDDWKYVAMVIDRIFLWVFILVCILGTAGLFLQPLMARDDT
T3 sequence (P12392 21-495): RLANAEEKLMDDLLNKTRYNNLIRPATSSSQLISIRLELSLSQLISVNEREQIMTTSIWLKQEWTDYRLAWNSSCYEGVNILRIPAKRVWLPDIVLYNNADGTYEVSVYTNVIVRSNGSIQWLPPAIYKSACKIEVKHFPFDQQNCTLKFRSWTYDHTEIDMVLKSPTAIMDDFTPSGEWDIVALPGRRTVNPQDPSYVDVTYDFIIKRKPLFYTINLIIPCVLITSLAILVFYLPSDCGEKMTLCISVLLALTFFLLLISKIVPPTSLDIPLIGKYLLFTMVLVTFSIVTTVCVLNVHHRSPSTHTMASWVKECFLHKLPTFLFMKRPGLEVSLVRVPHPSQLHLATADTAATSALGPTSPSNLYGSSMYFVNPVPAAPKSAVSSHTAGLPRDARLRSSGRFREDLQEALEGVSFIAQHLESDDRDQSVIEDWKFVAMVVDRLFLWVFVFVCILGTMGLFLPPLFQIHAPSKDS
Procedure: as §4, §5, §6

[2] = target: T4, native α7 receptors on rat hippocampal interneurons (Rattus norvegicus, UniProt Q05941); experiment: Patch-clamp recording of ACh-evoked responses of hippocampal interneurons in brain slices; details: 1 μM bath-applied; for reduction of ACh-evoked responses: 1 mM ACh
T4 construct: Native α7 Receptors on Rat Hippocampal Interneurons; from tissue; host or cells: interneurons of CA1 stratum radiatum in fresh rat brain slices
T4 sequence (Q05941 23-502): as the sequence (Q05941 23-502) above
Procedure: as §1, §2, §3
Stable ACh-evoked responses were obtained from hippocampal interneurons in fresh brain slices and then applied 1 μM tPyQB, tPy2PiB, or tkP3BzPB to the bath. […]

[3] = system: Type I cells in rat medial septum; experiment: Patch-clamp recording of ACh-evoked responses of medial septal neurons, Type I cells
Procedure: as §1
Single-barrel pipettes were pulled from borosilicate glass with an outer diameter (o.d.) and inner diameter (i.d.) of 1.5 mm and 0.86 mm, respectively (Sutter Instrument, Novato, Calif.). […]
In experiments in which AQA analogs were bath-applied, for each cell, four ACh baseline-evoked responses were recorded before bath application of the antagonist. ACh-evoked responses were then recorded for 13-22 min in the presence of the AQA analog. […]

[4] = 1 mM ACh+300 μM tkP3BzPB pressure co-application

Structure (SMILES): CO[C@H]1CC=C2CCN3CCC4=C(CC(=O)OC4)[C@]23C1 [DHβE, dihydro-β-erythroidine, reference compound]
blockade of residual ACh-evoked responses following tkP3BzPB bath application ([1]; 1 μM DHβE bath-applied): largely sensitive to DHβE blockade

Structure (SMILES): Cc1cccc[n+]1CCCC#Cc1cc(C#CCCC[n+]2ccccc2C)cc(C#CCCC[n+]2ccccc2C)c1 [tPy2PiB, 1,3,5,-tri-{5-[1-(2-picolinium)]-pent-1-yn-1-yl}benzene tribromide]
inhibition of net charge responses (rat α7 nAChRs; 3 μM tPy2PiB, holding potential −40 mV): no significant inhibition
Imax of ACh concentration-response in the presence of antagonist (rat α7 nAChRs; 3 μM tPy2PiB, net charge): 0.84±0.02
recovery of responses to ACh alone after co-application (rat α7 nAChRs): recovered fully
IC50 (rat α7 nAChRs; read-out: IC50 values, α7): 6.3 ± 0.6 µM
inhibition at 3 µM (rat α7 nAChRs; read-out: inhibition of net charge responses, 3 μM tPy2PiB, holding potential −80 mV): 43 ± 3%
effect of voltage on inhibition of α7 receptors (rat α7 nAChRs): significant effect of voltage
IC50 (rat α4β2 nAChRs): 103 ± 25 µM
recovery of responses to ACh alone after co-application (rat α4β2 nAChRs): recovered fully
IC50 (rat α3β4 nAChRs): 10 ± 1.4 µM
recovery of responses to ACh alone after co-application (rat α3β4 nAChRs): recovered fully
reduction of ACh-evoked responses [2]: no significant reduction

Structure (SMILES): C(#Cc1cc(C#CCCC[n+]2cccc3ccccc32)cc(C#CCCC[n+]2cccc3ccccc32)c1)CCC[n+]1cccc2ccccc21 [tPyQB, 1,3,5-tri-[5-(1-quinolinum)-pent-1-yn-1-yl]-benzene tribromide]
Imax of ACh concentration-response in the presence of antagonist (rat α7 nAChRs; 300 nM tPyQB, net charge): 0.40±0.01
inhibition of 60 μM ACh-evoked responses (rat α7 nAChRs; 1 μM): completely inhibit
inhibition at 1 µM (rat α7 nAChRs; cells held at −40 mV): 83 ± 2%
inhibition at 1 µM (rat α7 nAChRs; −80 mV): 97.7 ± 0.1%
recovery of responses to ACh alone after co-application (rat α7 nAChRs): recovered fully
IC50 (rat α7 nAChRs; read-out: IC50 values, α7): 0.13 ± 0.02 µM
effect of voltage on inhibition of α7 receptors (rat α7 nAChRs): significant effect of voltage
IC50 (rat α4β2 nAChRs): 4.1 ± 1 µM
recovery of responses to ACh alone after co-application (rat α4β2 nAChRs): recovered fully
IC50 (rat α3β4 nAChRs): 1 ± 0.1 µM
recovery of responses to ACh alone after co-application (rat α3β4 nAChRs): recovered fully
reduction of ACh-evoked responses [2]: effectively reduced

inhibition of 60 μM ACh-evoked responses (rat α7 nAChRs; 100 nM, typical co-application protocol): virtually no inhibition
use-dependence of persistent inhibition (rat α7 nAChRs; 3 μM for 20 s with or without 60 μM ACh, 5 minute washout): not use-dependent
recovery time constant (rat α7 nAChRs; after 1 μM co-applied with 60 μM ACh): 26.6 ± 0.8 min
IC50 (rat α7 nAChRs; after 5 minutes wash following application at increasing concentrations, read-out: IC50 estimated for recovery data): 1.9 ± 0.7 µM
time constant of recovery (rat α7 nAChRs; after application of 3 μM alone, repeated applications of 60 μM ACh): 76 ± 3 min
inhibition at 0.1 µM (rat α7 nAChRs; read-out: inhibition of the ACh-evoked responses): ~80%
IC50 (rat α7 nAChRs; simple co-application with 60 μM ACh, net charge, read-out: IC50 values, α7): 1 ± 0.1 µM
effect of voltage on inhibition of α7 receptors (rat α7 nAChRs): no significant difference
IC50 (rat α4β2 nAChRs): 48 ± 11 µM
recovery of responses to ACh alone after co-application (rat α4β2 nAChRs): no significant residual inhibition
IC50 (rat α3β4 nAChRs): 9.2 ± 1.2 µM
recovery of responses to ACh alone after co-application (rat α3β4 nAChRs): no significant residual inhibition
reduction of ACh-evoked responses [2]: effectively reduced
baseline net charge response remaining after bath application ([2]; 1 mM ACh pressure application): 0.4±0.7%
baseline peak response remaining after bath application ([2]; 1 mM ACh pressure application): 4±0.2%
Structure (SMILES): c1ccc(Cc2ccc[n+](CCCCCc3cc(CCCCC[n+]4cccc(Cc5ccccc5)c4)c(CCCCC[n+]4cccc(Cc5ccccc5)c4)cc3CCCCC[n+]3cccc(Cc4ccccc4)c3)c2)cc1 [tkP3BzPB, 1,2,4,5-tetra-{5-[1-(3-benzyl)pyridinium]pent-1-yl}benzenetetrabromide]
recovery of responses to ACh alone after co-application (rat α7 nAChRs): decreasing recovery with increasing tkP3BzPB concentrations
initial evoked response remaining (peak amplitude) after bath application ([3]; 1 μM bath-applied): 12±0.6%
net-charge evoked response after bath application ([3]; 1 μM bath-applied): fully abolished
average baseline net charge response after co-application [3, 4]: 68±9%
average baseline peak response after co-application [3, 4]: 72±6%
baseline response (peak amplitude) at the end of the application ([1]; 1 μM bath-applied): 59±1%
net-charge evoked response, of the baseline response, after bath application ([1]; 1 μM bath-applied): 79±2%
average baseline net charge response after co-application [1, 4]: 93±10%
average baseline peak response after co-application [1, 4]: 86±5%

From patent US20130231366A1, “Use of a Novel Alpha-7 Nachr Antagonist to Suppress Pathogenic Signal Transduction in Cancer and Aids” (UNIVERSITY OF KENTUCKY RESEARCH FOUNDATION, priority 2008, published 2013)
